# Test results: ChEMBL document CHEMBL1201862, “PubChem BioAssay data set” (2004)
# Active and inactive are the calls of the source.
# What was measured:
# [1] = intracellular Trypanosoma cruzi inhibitors in host cells – cell-based, plate reader, cherry-pick samples, set 3, dose response (AID 651818); format: functional;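 note: compounds incubated with infected cells for about four days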
# [2] = NIH3T3 cell viability loss – ATP luminescence, mouse fibroblasts, counter-screen, dose response (AID 2010); format: functional, cell-based;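 note: cells exposed to compound for about 90 hours before reading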
# [3] = target: FAD-linked sulfhydryl oxidase ALR (Homo sapiens, UniProt P55789); experiment: ALR-catalysed DTT oxidation blockers – biochemical, H2O2 detection, luminescence, cherry-pick, dose response (AID 493248)
# [4] = Trypanosoma cruzi growth suppression in host cells – NIH3T3 host cells, beta-gal luminescence, confirmation (AID 2044); format: functional, cell-based;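 note: intracellular parasites grown in NIH/3T3 mouse fibroblasts as host cells; luminescent beta-galactosidase reporter signal from transgenic T. cruzi replicating inside host cells; inhibitors lower the luminescence signal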
# [5] = NIH-3T3 fibroblast cytotoxicity, dose response, cytotoxicity control, cell-based, fluorescence, Alamar Blue, secondary assay (AID 2327); format: functional;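 note: NIH-3T3 mouse fibroblasts cultured with fluconazole at 8 µg/mL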
# Streptococcus = experiment: GAS UMAA2166 growth inhibition – luminescence, BacTiterGlo, counter-screen for streptokinase expression inhibitor project, dose response (AID 1915); format: functional, organism-based;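 note: potency for reduction of bacterial viability or growth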
# [6] = system: Streptococcus sp. 'group A'; experiment: Streptococcus pyogenes SK(-)GAS viability under kanamycin – luminescence, BacTiterGlo, confirmation, counter-screen for streptokinase expression inhibitor project, dose response (AID 1900); format: functional, organism-based
# [7] = target: Heat shock protein HSP 90-alpha (Homo sapiens, UniProt P07900); format: functional, organism-based
# [8] = fluconazole-exposed Candida albicans growth modulators – fluorescence, retest, confirmation (AID 2467); format: functional, cell-based
# Streptokinase A = target: T1, Streptokinase A (Streptococcus pyogenes serotype M1, UniProt P10520); experiment: viability-normalized secreted streptokinase activity reduction – plasminogen activation absorbance, OD405, dose response (AID 1914); format: functional, Streptococcus pyogenes M1 GAS;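 note: secreted streptokinase activity via plasminogen activation per viability signal from cell pellet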
# T1 sequence (P10520 whole entry): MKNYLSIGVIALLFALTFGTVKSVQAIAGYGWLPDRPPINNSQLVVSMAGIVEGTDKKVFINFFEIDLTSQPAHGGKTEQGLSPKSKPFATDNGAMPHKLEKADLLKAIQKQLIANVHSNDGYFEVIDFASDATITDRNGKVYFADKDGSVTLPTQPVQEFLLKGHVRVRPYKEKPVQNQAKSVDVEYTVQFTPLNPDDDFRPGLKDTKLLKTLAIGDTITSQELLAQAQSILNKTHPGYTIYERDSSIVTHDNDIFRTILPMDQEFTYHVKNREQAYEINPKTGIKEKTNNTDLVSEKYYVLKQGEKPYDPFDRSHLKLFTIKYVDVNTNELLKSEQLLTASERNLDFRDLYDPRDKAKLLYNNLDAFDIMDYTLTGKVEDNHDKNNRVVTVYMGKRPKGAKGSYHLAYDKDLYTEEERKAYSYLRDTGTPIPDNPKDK
# Protein skinhead-1 = target: T2, Protein skinhead-1 (Caenorhabditis elegans, UniProt P34707); format: functional
# T2 sequence (P34707 whole entry): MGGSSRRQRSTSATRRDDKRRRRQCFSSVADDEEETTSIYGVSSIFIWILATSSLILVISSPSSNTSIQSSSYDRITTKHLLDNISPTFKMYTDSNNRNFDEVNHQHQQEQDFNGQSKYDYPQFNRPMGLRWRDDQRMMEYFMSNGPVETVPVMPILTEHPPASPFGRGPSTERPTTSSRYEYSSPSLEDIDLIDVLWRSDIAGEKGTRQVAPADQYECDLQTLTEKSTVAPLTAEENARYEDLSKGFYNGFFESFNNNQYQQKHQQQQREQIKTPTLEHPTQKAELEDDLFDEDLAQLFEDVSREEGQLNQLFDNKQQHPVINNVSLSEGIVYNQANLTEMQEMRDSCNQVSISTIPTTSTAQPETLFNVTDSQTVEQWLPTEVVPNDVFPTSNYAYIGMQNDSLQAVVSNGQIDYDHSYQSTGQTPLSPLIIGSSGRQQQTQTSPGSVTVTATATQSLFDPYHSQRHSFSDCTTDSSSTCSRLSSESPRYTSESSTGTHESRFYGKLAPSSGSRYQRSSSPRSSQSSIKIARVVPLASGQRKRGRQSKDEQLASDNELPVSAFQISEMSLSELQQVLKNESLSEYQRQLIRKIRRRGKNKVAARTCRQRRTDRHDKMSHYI
# cells [9] = format: functional, cell-based
# cells [10] = format: functional, cell-based; remark: listed apart in the source
# [11] = target: T3, Heat shock factor protein 1 (Mus musculus, UniProt P38532); experiment: enhancement of HSF1-driven luciferase signal – cell-based, NIH3T3, luminescence, dose retest, confirmation (AID 435004); format: functional;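 note: stress induced by proteasome inhibitor MG132 added 30 min after compound; luciferase reporter driven by HSF1 response element in NIH3T3 cells; actives raise luminescence as potentiators of the MG132 stress response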
# T3 sequence (P38532 whole entry): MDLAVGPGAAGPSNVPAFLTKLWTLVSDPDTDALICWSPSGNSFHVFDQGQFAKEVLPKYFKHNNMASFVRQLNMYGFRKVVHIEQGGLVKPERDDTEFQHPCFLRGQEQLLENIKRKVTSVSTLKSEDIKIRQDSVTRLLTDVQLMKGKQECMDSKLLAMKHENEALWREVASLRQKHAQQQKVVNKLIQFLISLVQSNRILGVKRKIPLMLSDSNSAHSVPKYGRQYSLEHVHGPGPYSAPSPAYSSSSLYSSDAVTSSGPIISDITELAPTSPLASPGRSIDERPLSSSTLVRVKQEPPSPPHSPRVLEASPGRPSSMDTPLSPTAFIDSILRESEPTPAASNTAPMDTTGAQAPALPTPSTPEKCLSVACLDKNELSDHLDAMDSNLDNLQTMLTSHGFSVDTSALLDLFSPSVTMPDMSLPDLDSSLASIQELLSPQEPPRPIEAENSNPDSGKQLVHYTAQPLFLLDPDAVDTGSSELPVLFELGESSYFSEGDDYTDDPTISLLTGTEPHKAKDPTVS
# [12] = alpha-synuclein stem-loop luciferase translation blockers – H4 neuroglioma cells, luminescence, confirmation (AID 1988); format: functional, cell-based
# H9c2 = experiment: cells; format: functional, cell-based; settings: Rattus norvegicus, H9c2, Myocardium;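 note: confirmatory concentration-response retest of ultra-high-throughput screening hits for modulation of myocardial damage; cell death induced by hydrogen peroxide oxidative stress; compound pretreatment for 60 min then peroxide exposure for 2 h; potency is for protecting the cells against peroxide damage rather than for killing them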
# [13] = Luminescence Cell-Based Dose Response HTS to Identify Inhibitors of 5'UTR Stem-Loop Driven Prion Protein mRNA Translation in H4 Neuroglioblastoma Cells. [Related pubchem assays: 1827 (Project Summary), 1813 (Primary HTS)]; format: functional
# [14] = luciferase reporter signal suppression in cells – H4 neuroglioma cells, luminescence, dose response (AID 1990); format: functional, cell-based
# cells [15] = format: functional
# [16] = THP-1 cell cytotoxicity, dose response, cytotoxicity control for non-replicating M. tuberculosis project (AID 489025); format: functional
# [17] = Vero E6 cell cytotoxicity, dose response, cytotoxicity control for non-replicating M. tuberculosis project, secondary assay (AID 492998); format: functional, VeroE6; settings: Vero C1008
# Chain of FAD-linked sulfhydryl oxidase ALR (P55789 whole entry): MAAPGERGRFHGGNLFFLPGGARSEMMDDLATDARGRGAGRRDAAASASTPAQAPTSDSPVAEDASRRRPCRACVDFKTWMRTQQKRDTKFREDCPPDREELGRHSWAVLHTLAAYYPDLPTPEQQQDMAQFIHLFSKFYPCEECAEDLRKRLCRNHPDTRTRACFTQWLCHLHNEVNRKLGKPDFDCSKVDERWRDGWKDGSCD
structure (smiles),measurement,setting,value
C[C@@H]1CCCCO[C@H](CN(C)C(=O)Nc2ccc(C(F)(F)F)cc2)[C@@H](C)CN([C@H](C)CO)C(=O)c2cc(NC(=O)Nc3ccc4c(c3)OCO4)ccc2O1,AC50,[1],1.68 µM (active)
Cc1ccc(NC2CCCN(C(=O)CCc3ccncc3)C2)cc1C (stereo not drawn),EC50,[2],> 60 µM (not active)
same,AC50,[3],2.7 µM (active)
same,EC50,[4],1.15 µM (active)
C[C@H]1CN([C@@H](C)CO)C(=O)Cc2cc(NC(=O)Nc3cccc4ccccc34)ccc2O[C@@H]1CN(C)Cc1ccc2c(c1)OCO2,AC50,[1],5.35 µM (active)
CC1Oc2cc3oc4c(O)c(O)ccc4c(=O)c3c(O)c2C1(C)C (stereo not drawn) [TOXYLOXANTHONE C],EC50,[5],> 150 µM (inactive)
same,EC50,Streptococcus,8.07 µM (active)
same,EC50,[6],5.91 µM (active)
same,AC50,[7],38 µM (active)
same,EC50,[8],> 38 µM (not active)
same,EC50,Streptokinase A,> 150 µM (not active)
c1ccc(-c2cc3c(N4CCOCC4)ncnc3s2)cc1,IC50,Protein skinhead-1,> 100 µM (inactive)
C[C@@H]1CN([C@@H](C)CO)C(=O)Cc2cc(NC(=O)Nc3ccc(C(F)(F)F)cc3)ccc2O[C@@H]1CN(C)Cc1ccncc1,AC50,[1],3.57 µM (active)
Cc1noc(C)c1S(=O)(=O)Nc1ccc2c(c1)C(=O)N([C@H](C)CO)C[C@H](C)[C@@H](CN(C)Cc1ccc(C(=O)Nc3ccccc3N)cc1)OCCCC[C@@H](C)O2,AC50,[1],2.18 µM (active)
CCn1c(S)nnc1CCn1c2ccccc2c2ccccc21,AC50,[3],> 100 µM (inactive)
c1ccc(OCc2nc3ccccc3s2)cc1 [2-(PHENOXYMETHYL)BENZOTHIAZOLE],IC50,Protein skinhead-1,29.5 µM (active)
C/C(CC(=O)Nc1cc(C)ccn1)=N\NC(=O)c1cccc(C)c1O,EC50,[5],> 160 µM (inactive)
same,AC50,[7],49.5 µM (active)
same,EC50,[8],> 38 µM (not active)
CC(C)NC(=O)Nc1cccc2c1O[C@H](CN(C)CC1CCCCC1)[C@@H](C)CN([C@H](C)CO)C2=O,AC50,[1],8.41 µM (active)
CCN(CC)c1ccc(CNCc2cccs2)cc1,AC50,[3],0.742 µM (active)
O=C(NCCCN1CCOCC1)c1cc(-c2cccs2)on1,EC50,cells [9],> 350 µM (not active)
same,EC50,cells [10],77 µM (active)
C/C(=N\NC(=O)c1ccncc1)c1ccc(N(C)C)cc1,AC50,[3],5.01 µM (active)
CSc1ccccc1OCc1cc(C(=O)N2CCN(C)C(c3ccccc3)C2)no1 (stereo not drawn),AC50,[7],1.64 µM (active)
COc1cccc(N2CCN(CC(=O)NCc3ccccc3)CC2)c1,AC50,[3],1.97 µM (active)
O=C1OC(c2ccccc2)(c2ccc3cc(O)ccc3c2)c2ccccc21 (stereo not drawn),AC50,[7],8.23 µM (active)
CCOC(=O)c1cc2c(ccn2C)n1CC(=O)N1CCN(c2ccccc2)CC1,EC50,cells [9],> 350 µM (not active)
same,EC50,cells [10],> 350 µM (not active)
O=S(=O)(NC1CC2CCC1C2)c1ccc(Br)cc1 (stereo not drawn),AC50,[7],1.6 µM (active)
O=C(NCN1CCN(c2ccccc2)CC1)c1cnccn1,AC50,[3],4.03 µM (active)
CC(=O)NC(Cc1ccc(F)cc1)C(=O)N1CCN(C(=O)NCc2ccccc2)CC1 (stereo not drawn),IC50,Protein skinhead-1,> 100 µM (inactive)
Cc1cc(NC(=O)CCN2C(=O)/C(=C\c3ccccc3)SC2=S)no1,EC50,cells [9],> 350 µM (not active)
same,EC50,cells [10],> 350 µM (not active)
O=C(/C=C/c1ccc(Cl)cc1Cl)Nc1ccc(CN2CCOCC2)cc1,IC50,Protein skinhead-1,27 µM (active)
C[C@@H]1CN([C@H](C)CO)C(=O)c2cccc(NC(=O)NC3CCCCC3)c2O[C@@H]1CN(C)Cc1ccc(C(=O)Nc2ccccc2N)cc1,AC50,[1],3.74 µM (active)
COc1ccc(N2C(=O)CSC2c2ccncc2)cc1 (stereo not drawn),EC50,[11],> 260 µM (inactive)
same,AC50,[3],0.124 µM (active)
O=C(COc1ccc([N+](=O)[O-])cc1)Nc1nc(-c2ccccn2)cs1,EC50,[2],8.46 µM (active)
same,EC50,[12],> 120 µM (not active)
same,EC50,Streptococcus,13.8 µM (active)
same,IC50,H9c2,11.8 µM (active)
same,EC50,[4],1.79 µM (active)
same,EC50,[6],5.56 µM (active)
same,EC50,[13],11.8 µM (active)
same,EC50,Streptokinase A,> 150 µM (not active)
same,EC50,[14],> 120 µM (not active)
Cc1ccc(S(=O)(=O)N(C)C[C@H]2Oc3c(NC(=O)Nc4ccc(C(F)(F)F)cc4)cccc3C(=O)N([C@@H](C)CO)C[C@H]2C)cc1,AC50,[1],1.55 µM (active)
CCCN1Cc2cccc(C(N)=O)c2C1=O,IC50,H9c2,> 79 µM (inactive)
Cc1occc1-c1nnc(-c2cc([N+](=O)[O-])cc([N+](=O)[O-])c2)o1,EC50,[2],> 60 µM (not active)
same,IC50,cells [15],1.37 µM (active)
same,EC50,[4],0.277 µM (active)
same,AC50,[7],2.74 µM (active)
O=C(NC1CCCCC1)c1nc(O)c2nnn(Cc3ccccc3Cl)c2n1,IC50,cells [15],29.9 µM (active)
same,CC50,[16],> 40 µM (active)
same,CC50,[17],19.9 µM (active)
C=C(C)Cn1c(CCNC(=O)C(C)C)nc2ccccc21,EC50,cells [9],> 350 µM (not active)
same,EC50,cells [10],> 350 µM (not active)
O=C(Nc1ccc(Cl)cc1Cl)C1=Cc2ccccc2OC1,IC50,Protein skinhead-1,> 100 µM (inactive)
CCCCCn1c(N)c(C(=O)NCCN2CCOCC2)c2nc3ccccc3nc21,IC50,Protein skinhead-1,> 100 µM (inactive)
CCCCc1c(C)nc(N)nc1O,EC50,cells [9],> 350 µM (not active)
same,EC50,cells [10],> 350 µM (not active)
C[C@H]1CN([C@@H](C)CO)C(=O)Cc2cc(NC(=O)Cc3cn(C)c4ccccc34)ccc2O[C@H]1CN(C)Cc1ccc(C(=O)Nc2ccccc2N)cc1,AC50,[1],2 µM (active)
O=C(N/N=C\c1cccc(Cl)c1)c1ccc(Cn2cccn2)o1,AC50,[3],0.641 µM (active)
COc1ccc(S(=O)(=O)Nc2ccc3c(c2)CC(=O)N([C@@H](C)CO)C[C@@H](C)[C@@H](CN(C)Cc2ccc(Cl)c(Cl)c2)O3)cc1,AC50,[1],4.36 µM (active)
CC(=O)Nc1cccc(-c2cc(NC(C)=O)c3ncc(-c4ccccc4)n3c2)c1,IC50,H9c2,> 79 µM (inactive)
O=C(CCN1CCN(c2ccccc2)CC1)N/N=C/c1ccccc1O,EC50,cells [9],> 350 µM (not active)
same,EC50,cells [10],91.8 µM (active)
O=C(NCc1cccs1)c1csc([C@@H]2O[C@H](CO)[C@H](O)[C@H](O)[C@H]2O)n1,IC50,Protein skinhead-1,> 100 µM (inactive)
C[C@H](CO)N1C[C@H](C)[C@@H](CN(C)S(=O)(=O)c2ccccc2)Oc2ccc(NC(=O)Nc3ccccc3)cc2C1=O,IC50,H9c2,13.3 µM (active)
O=C1NC(=O)N(Cc2ccccc2Cl)C(=O)/C1=C/c1ccc[nH]1,IC50,cells [15],1.04 µM (active)
same,CC50,[16],9.35 µM (active)
same,CC50,[17],9.48 µM (active)
